Measurements: patent US20110245190A1, “METHOD FOR IMPROVING POST SURGERY VISUAL ACUITY OUTCOME WITH AZITHROMYCIN” (priority 2009, published 2011)

Tested on: patients with contact lens-related dry eye disease (CLDE)
Assay: Study of azithromycin 1% ophthalmic solution vs rewetting drops over four weeks in contact lens-related dry eye disease (Example 2)
Format: in vivo, human
Source text: The objective of this study is to compare the efficacy of study drug, AZASITE® (azithromycin ophthalmic solution) 1%, versus rewetting drops (Visine for Contacts™) over a four week treatment period in patients with contact lens-related dry eye disease (CLDE).
Subjects are 18 years of age or older. Subjects have a positive diagnosis of CLDE based on their responses to the Contact Lens Dry Eye Questionnaire (CLDEQ, Nichols et al, Cornea 21:469-75 (2002)) and a score of ≧2, (i.e., moderate severity on a 0-4 scale, where 0=no ocular dryness and 4=very severe ocular dryness) on a self-reported assessment of ocular dryness at the screening Visit. A total of 50 subjects are enrolled in the study.
Subjects were asked to rate their level of ocular dryness on a 0-4 scale. Tear osmolarity was then assessed for each eye using the TearLab Osmolarity System®. Subjects were then instructed to remove their contact lenses and slit-lamp biomicroscopy and external eye exams were performed. Fluorescein corneal staining was then performed on each eye (5 μl of 2% fluorescein applied to the ocular surface) and graded according to National Eye Institute (NEI) criteria.
Eligible subjects were then randomized to receive either azithromycin 1% ophthalmic solution (AzaSite®), or rewetting drops (Visine for Contacts™) in a 1:1 ratio and they were not masked as to the treatment assignment. Subjects randomized to azithromcyin 1% were instructed to administer one drop to each eye BID for the first two days and then one drop QD for days 3-29. Subjects randomized to rewetting drops were instructed to administer one to two drops QID throughout the 29 day treatment period. The first dose of study medication was self-administered at the clinic once dosing instructions were provided. […]
Concomitant medication usage was recorded, an AE query performed, study medication and diary cards were collected. Subjects underwent habitual HCVA and LCVA assessment, completed the CLDEQ, and had tear osmolarity readings measured prior to removing their contact lenses. […]

CC[C@H]1OC(=O)[C@H](C)[C@@H](O[C@H]2C[C@@](C)(OC)[C@@H](O)[C@H](C)O2)[C@H](C)[C@@H](O[C@@H]2O[C@H](C)C[C@H](N(C)C)[C@H]2O)[C@](C)(O)C[C@@H](C)CN(C)[C@H](C)[C@@H](O)[C@]1(C)O [azithromycin]
mean ocular dryness scores, AM assessment (FIG. 2, prior to instilling study medication): lower
mean ocular dryness scores, PM assessment (FIG. 3, prior to lens removal): lower
mean daily duration of comfortable contact lens wear time (each of the weekly endpoints (Weeks 1-4), FIG. 1): longer
